{"source": "patent US20260098030A1", "about": "“NEGATIVE ALLOSTERIC MODULATORS OF METABOTROPIC GLUTAMATE RECEPTOR 2” (Vanderbilt University, priority 2022, published 2026)", "note": "pIC50: −log10 of the molar value."}
{"target": "T1, rat mGlu2 (Rattus norvegicus, UniProt P31421)", "T1 construct": "expressed in transfected cells; host or cells: HEK-293 cells stably co-expressing GIRK channels", "T1 sequence (P31421 19-872)": "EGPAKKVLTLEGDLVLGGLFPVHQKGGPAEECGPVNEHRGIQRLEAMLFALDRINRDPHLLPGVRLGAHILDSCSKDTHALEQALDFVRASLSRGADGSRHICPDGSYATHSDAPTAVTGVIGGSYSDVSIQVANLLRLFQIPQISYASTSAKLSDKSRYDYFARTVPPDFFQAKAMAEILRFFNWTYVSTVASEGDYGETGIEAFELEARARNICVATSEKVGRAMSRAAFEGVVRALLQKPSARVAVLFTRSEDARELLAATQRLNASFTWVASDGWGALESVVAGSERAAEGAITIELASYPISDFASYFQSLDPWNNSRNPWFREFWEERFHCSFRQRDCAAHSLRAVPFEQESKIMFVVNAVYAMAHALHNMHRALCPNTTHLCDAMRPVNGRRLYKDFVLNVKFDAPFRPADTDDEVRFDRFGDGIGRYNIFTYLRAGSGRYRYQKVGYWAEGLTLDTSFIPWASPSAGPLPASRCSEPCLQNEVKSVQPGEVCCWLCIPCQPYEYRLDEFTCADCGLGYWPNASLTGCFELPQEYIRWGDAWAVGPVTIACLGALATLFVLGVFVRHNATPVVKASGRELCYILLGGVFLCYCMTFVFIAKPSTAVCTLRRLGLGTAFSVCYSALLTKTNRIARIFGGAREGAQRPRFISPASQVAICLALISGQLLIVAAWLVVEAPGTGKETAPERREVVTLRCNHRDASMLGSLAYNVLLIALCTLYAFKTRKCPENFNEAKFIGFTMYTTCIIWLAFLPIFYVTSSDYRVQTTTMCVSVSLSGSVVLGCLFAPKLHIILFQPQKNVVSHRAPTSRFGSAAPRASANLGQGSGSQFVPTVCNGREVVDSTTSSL", "assay": "mGlu GIRK cell-based thallium flux assay, rat mGlu2", "settings": "HEK-293 cells co-expressing rat mGlu2 and GIRK, EC80 glutamate", "experimental": "Human embryonic kidney (HEK-293) cell lines stably co-expressing human or rat mGlu2 and G protein-coupled inwardly rectifying potassium (GIRK) channels, or human mGlu3 and GIRK, were used for in vitro evaluation of compound activity in thallium flux assay using a fluorescent thallium indicator dye.\nThe day before the assay, GIRK cells co-expressing human mGlu3, human or rat mGlu2, as described above, were plated in black-walled, clear-bottomed, amine-coated 384-well plates at a density of 15,000 cells/20 μL/well in the assay medium (glutamine-depleted basal DMEM supplemented with 10% dialyzed FBS, 20 mM HEPES, 1 mM sodium pyruvate). Cells were incubated at 37° C. in the presence of 5% CO2. The next day, assay buffer (Hanks balanced salt solution, 20 mM HEPES, 4.16 mM sodium bicarbonate, pH 7.2) was prepared to dilute compounds and Thallos AM fluorescent dye solution. The 2× Thallos dye solution (final concentration 0.34 μM to the cells) was prepared by mixing the dye stock (2.97 mM in DMSO) to 1:1 with 10% pluronic acid before adding to the assay buffer. Cells were washed with assay buffer using a microplate washer to remove the medium, resulting in 20 μL of buffer remaining in each well. Immediately, 20 μL of 2× Thallos dye solution was added to cells, and incubated for one hour at 25° C. During the cell dye loading incubation period, a 10-point concentration serial dilution of compound was created from a 10 mM DMSO compound stock by performing a 1:3 serial dilution in DMSO using the Bravo liquid handler. The 2× compound plate was generated by transferring 0.24 μL of the diluted compound in each well to a daughter plate using an Echo acoustic liquid handler. This is further diluted in 40 μL assay buffer, resulting in a range from 30 μM to 1.5 nM final concentration in the assay. The agonist plate (5×) was prepared to include EC80 glutamate concentration (a concentration to elicit 80% of a maximally effective glutamate concentration) in thallium buffer (125 mM […], 1 mM magnesium sulfate, 1.8 mM calcium sulfate, 5 mM glucose, 10 mM HEPES, pH 7.2, 12.5 mM thallium sulfate).\nAfter dye-loading, cell plates were washed with assay buffer to remove excess extracellular dye using a microplate washer, resulting in 20 μL of buffer remaining in each well. After a ten-minute equilibration period, cell, compound and agonist plates were loaded into a Hamamatsu μCell kinetic imaging plate reader equipped with liquid handler to monitor fluorescence changes at 480 nm excitation and 540 nm emission settings. Briefly, after collection of baseline fluorescence, 20 μL of compound was added and incubated for two minutes and twenty seconds. This is immediately followed by adding 10 μL of glutamate-thallium buffer to the wells containing compound. The fluorescent signal was monitored an additional 2.5 minutes after the glutamate addition. Multiple reference wells containing no compound received either no glutamate (for a baseline reference), EC80 glutamate, or ECmax glutamate (for normalization to maximum response). Fluorescence was measured throughout the experiment at a frequency of 1 measurement per every 2 seconds before the glutamate addition and a frequency of 1 measurement per every 1 second after the glutamate addition. Each compound concentration series occurred one time in each plate, and replicates from two or three plates were used in each experimental run. Thallium solutions were handled and disposed of according to guidelines from the Vanderbilt University Chemical Safety department.\nData were normalized using a static ratio function (F/F0) by dividing every fluorescent measurement by the initial fluorescent value for the corresponding well. The increase in signal resulting from the glutamate/thallium addition of the second add was measured by determining the slope from 3 seconds to 13 seconds after the addition. […]"}
{"smiles": "Cn1cc2cc(-c3cc4c(cc3-c3ccc(F)cc3)C(=O)NC4)cnc2n1", "note": "[Compound 16, 6-(4-fluorophenyl)-5-(2-methyl-2H-pyrazolo[3,4-b]pyridin-5-yl)isoindolin-1-one]", "pIC50": "< 5.00"}
{"smiles": "Cn1ccc(-c2cc3c(cc2-c2ccc(F)cc2)C(=O)NC3)n1", "note": "[Compound 35, 6-(4-fluorophenyl)-5-(1-methyl-1H-pyrazol-3-yl)isoindolin-1-one]", "pIC50": 5.99}
{"smiles": "O=C1NCc2cc(-c3ccc4[nH]ccc4c3)c(-c3ccc(F)cc3F)cc21", "note": "[Compound 89, 6-(2,4-difluorophenyl)-5-(1H-indol-5-yl)isoindolin-1-one]", "pIC50": 6.03}
{"smiles": "O=C1NCc2cc(-c3ccc4ocnc4c3)c(-c3ccc(F)cc3)cc21", "note": "[Compound 12, 5-(benzo[d]oxazol-5-yl)-6-(4-fluorophenyl)isoindolin-1-one]", "pIC50": 7.03}
{"smiles": "CN1CCC=C(c2cc3c(cc2-c2ccc(F)cc2)C(=O)NC3)C1", "note": "[Compound 57, 6-(4-fluorophenyl)-5-(1-methyl-1,2,5,6-tetrahydropyridin-3-yl)isoindolin-1-one]", "pIC50": "< 5.00"}
{"smiles": "CN1CCN(c2ccc(-c3cc4c(cc3-c3ccc(F)cc3F)C(=O)NC4)cc2)CC1", "note": "[Compound 113, 6-(2,4-difluorophenyl)-5-(4-(4-methylpiperazin-1-yl)phenyl)isoindolin-1-one]", "pIC50": "< 5.00"}
{"smiles": "Cc1nc2cc(-c3cc4c(cc3-c3ccc(F)cc3)C(=O)NC4)ccc2[nH]1", "note": "[Compound 10, 6-(4-fluorophenyl)-5-(2-methyl-1H-benzo[d]imidazol-5-yl)isoindolin-1-one]", "pIC50": "< 5.00"}
{"smiles": "O=C1NCc2cc(-c3cccnc3F)c(-c3ccc(F)cc3F)cc21", "note": "[Compound 72, 6-(2,4-difluorophenyl)-5-(2-fluoropyridin-3-yl)isoindolin-1-one]", "pIC50": 6.00}
{"smiles": "N#Cc1ccc(-c2cc3c(cc2-c2ccc(F)cc2)C(=O)NC3)cn1", "note": "[Compound 33, 5-(6-(4-fluorophenyl)-1-oxoisoindolin-5-yl)picolinonitrile]", "pIC50": "< 5.00"}
{"smiles": "COc1ncccc1-c1cc2c(cc1-c1ccc(F)cc1F)C(=O)NC2", "note": "[Compound 100, 6-(2,4-difluorophenyl)-5-(2-methoxypyridin-3-yl)isoindolin-1-one]", "pIC50": 5.95}
{"smiles": "COc1cc(F)ccc1-c1cc2c(cc1-c1ccc(F)cc1F)C(=O)NC2", "note": "[Compound 105, 6-(2,4-difluorophenyl)-5-(4-fluoro-2-methoxyphenyl)isoindolin-1-one]", "pIC50": 5.35}
{"smiles": "O=C1NCc2cc(-c3ccc(C(F)(F)F)nc3)c(-c3ccc(F)cc3)cc21", "note": "[Compound 27, 6-(4-fluorophenyl)-5-(6-(trifluoromethyl)pyridin-3-yl)isoindolin-1-one]", "pIC50": "< 5.00"}
{"smiles": "CC(=O)Nc1ccc(-c2cc3c(cc2-c2ccc(F)cc2)C(=O)NC3)cn1", "note": "[Compound 36, N-(5-(6-(4-fluorophenyl)-1-oxoisoindolin-5-yl)pyridin-2-yl)acetamide]", "pIC50": "< 5.00"}
{"smiles": "O=C1NCc2cc(-c3cccnc3N3CCCC3)c(-c3ccc(F)cc3F)cc21", "note": "[Compound 102, 6-(2,4-difluorophenyl)-5-(2-(pyrrolidin-1-yl)pyridin-3-yl)isoindolin-1-one]", "pIC50": "< 5.00"}
{"smiles": "O=C1NCc2cc(C3=CCCNC3)c(-c3ccc(F)cc3)cc21", "note": "[Compound 61, 6-(4-fluorophenyl)-5-(1,2,5,6-tetrahydropyridin-3-yl)isoindolin-1-one]", "pIC50": "< 5.00"}
{"smiles": "Cn1cc2c(-c3cc4c(cc3-c3ccc(F)cc3)C(=O)NC4)cccc2n1", "note": "[Compound 28, 6-(4-fluorophenyl)-5-(2-methyl-2H-indazol-4-yl)isoindolin-1-one]", "pIC50": 5.71}
{"smiles": "O=C1NCc2cc(-c3ccc4cccnc4c3)c(-c3ccc(F)cc3)cc21", "note": "[Compound 18, 6-(4-fluorophenyl)-5-(quinolin-7-yl)isoindolin-1-one]", "pIC50": 5.36}
{"smiles": "O=C1NCc2cc(C3CCNCC3)c(-c3ccc(F)cc3)cc21", "note": "[Compound 67, 6-(4-fluorophenyl)-5-(piperidin-4-yl)isoindolin-1-one]", "pIC50": "< 5.00"}
{"smiles": "O=C1NCc2cc(-c3ccc4[nH]ccc4c3)c(-c3ccc(F)cc3)cc21", "note": "[Compound 49, 6-(4-fluorophenyl)-5-(1H-indol-5-yl)isoindolin-1-one]", "pIC50": "< 5.00"}
{"smiles": "CC1CC(c2cc3c(cc2-c2ccc(F)cc2)C(=O)NC3)CC(C)N1", "note": "(stereo not drawn) [Compound 68, 5-(2,6-dimethylpiperidin-4-yl)-6-(4-fluorophenyl)isoindolin-1-one]", "pIC50": "< 5.00"}
{"smiles": "CN(C)c1ccc(-c2cc3c(cc2-c2ccc(F)cc2)C(=O)NC3)cn1", "note": "[Compound 34, 5-(6-(dimethylamino)pyridin-3-yl)-6-(4-fluorophenyl)isoindolin-1-one]", "pIC50": "< 5.00"}
{"smiles": "O=C1NCc2cc(-c3ccc(C(F)(F)F)nc3)c(-c3ccc(F)cc3F)cc21", "note": "[Compound 79, 6-(2,4-difluorophenyl)-5-(6-(trifluoromethyl)pyridin-3-yl)isoindolin-1-one]", "pIC50": 5.73}
{"smiles": "Cc1n[nH]c2ccc(-c3cc4c(cc3-c3ccc(F)cc3)C(=O)NC4)cc12", "note": "[Compound 47, 6-(4-fluorophenyl)-5-(3-methyl-1H-indazol-5-yl)isoindolin-1-one]", "pIC50": "< 5.00"}
{"smiles": "O=C1NCc2cc(C3=CCN(Cc4ccccc4)CC3)c(-c3ccc(F)cc3)cc21", "note": "[Compound 56, 5-(1-benzyl-1,2,3,6-tetrahydropyridin-4-yl)-6-(4-fluorophenyl)isoindolin-1-one]", "pIC50": "< 5.00"}
{"smiles": "O=C1NCc2cc(C3=CCNC3)c(-c3ccc(F)cc3)cc21", "note": "[Compound 82, 5-(2,5-dihydro-1H-pyrrol-3-yl)-6-(4-fluorophenyl)isoindolin-1-one]", "pIC50": "< 5.00"}
{"smiles": "Cc1nnc(-c2ccc(-c3cc4c(cc3-c3ccc(F)cc3F)C(=O)NC4)cc2F)o1", "note": "[Compound 112, 6-(2,4-difluorophenyl)-5-(3-fluoro-4-(5-methyl-1,3,4-oxadiazol-2-yl)phenyl)isoindolin-1-one]", "pIC50": "< 5.00"}
{"smiles": "COC1CC=C(c2cc3c(cc2-c2ccc(F)cc2)C(=O)NC3)CC1", "note": "(stereo not drawn) [Compound 54, 6-(4-fluorophenyl)-5-(4-methoxycyclohex-1-en-1-yl)isoindolin-1-one]", "pIC50": "< 5.00"}
{"smiles": "COc1ccc(-c2cc3c(cc2-c2ccc(F)cc2F)C(=O)NC3)cc1C#N", "note": "[Compound 92, 5-(6-(2,4-difluorophenyl)-1-oxoisoindolin-5-yl)-2-methoxybenzonitrile]", "pIC50": 6.21}
{"smiles": "O=C1NCc2cc(C3CCNC3)c(-c3ccc(F)cc3)cc21", "note": "(stereo not drawn) [Compound 83, 6-(4-fluorophenyl)-5-(pyrrolidin-3-yl)isoindolin-1-one]", "pIC50": "< 5.00"}
{"smiles": "CN1CC=C(c2cc3c(cc2-c2ccc(F)cc2)C(=O)NC3)CC1", "note": "[Compound 58, 6-(4-fluorophenyl)-5-(1-methyl-1,2,3,6-tetrahydropyridin-4-yl)isoindolin-1-one]", "pIC50": "< 5.00"}
{"smiles": "O=C1NCc2cc(-c3ccc4ncsc4c3)c(-c3ccc(F)cc3)cc21", "note": "[Compound 11, 5-(benzo[d]thiazol-6-yl)-6-(4-fluorophenyl)isoindolin-1-one]", "pIC50": "< 5.00"}
{"smiles": "O=C1NCc2cc(-c3cccnc3F)c(-c3ccc(F)cc3)cc21", "note": "[Compound 40, 6-(4-fluorophenyl)-5-(2-fluoropyridin-3-yl)isoindolin-1-one]", "pIC50": "< 5.00"}
{"smiles": "Cc1cc(F)ncc1-c1cc2c(cc1-c1ccc(F)cc1)C(=O)NC2", "note": "[Compound 37, 5-(6-fluoro-4-methylpyridin-3-yl)-6-(4-fluorophenyl)isoindolin-1-one]", "pIC50": "< 5.00"}
{"smiles": "N#Cc1ccc(-c2cc3c(cc2-c2ccc(F)cc2F)C(=O)NC3)c(F)c1", "note": "[Compound 103, 4-(6-(2,4-difluorophenyl)-1-oxoisoindolin-5-yl)-3-fluorobenzonitrile]", "pIC50": 5.54}
{"smiles": "Cc1cc(-c2cc3c(cc2-c2ccc(F)cc2F)C(=O)NC3)c(C)n1C", "note": "[Compound 97, 6-(2,4-difluorophenyl)-5-(1,2,5-trimethyl-1H-pyrrol-3-yl)isoindolin-1-one]", "pIC50": 6.03}
{"smiles": "O=C1NCc2cc(-c3ccccn3)c(-c3ccc(F)cc3)cc21", "note": "[Compound 45, 6-(4-fluorophenyl)-5-(pyridin-2-yl)isoindolin-1-one]", "pIC50": "< 5.00"}
